Results: article PMC11859928, “Design, Synthesis, and Antiproliferative Activity of Novel Indole/1,2,4-Triazole Hybrids as Tubulin Polymerization Inhibitors” (Pharmaceuticals, 2025)
Read-outs that look alike come from different tables or passages of the source.

What was measured:
[1] = system: SR; assay: NCI five-dose assay; assay type: cell-based, human; settings: Leukemia
[2] = system: A549/ATCC; assay: NCI five-dose assay; assay type: cell-based, human; settings: Non-small cell lung cancer
[3] = system: HOP-92; assay: NCI five-dose assay; assay type: cell-based, human; settings: HOP-92, Non-small cell lung cancer
[4] = system: NCI-H322M; assay: NCI five-dose assay; assay type: cell-based, human; settings: Non-small cell lung cancer
[5] = system: NCI-H522; assay: NCI five-dose assay; assay type: cell-based, human; settings: NCI-H522, Non-small cell lung cancer
[6] = system: KM12; assay: NCI five-dose assay; assay type: cell-based, human; settings: KM12, Colon cancer
[7] = system: SF-295; assay: NCI five-dose assay; assay type: cell-based, human; settings: SF-295, CNS cancer
[8] = system: SNB-75; assay: NCI five-dose assay; assay type: cell-based, human; settings: SNB-75, CNS cancer
[9] = system: SK-MEL-2; assay: NCI five-dose assay; assay type: cell-based, human; settings: SK-MEL-2, Melanoma
[10] = system: SK-MEL-28; assay: NCI five-dose assay; assay type: cell-based, human; settings: SK-MEL-28, Melanoma
[11] = system: SK-MEL-5; assay: NCI five-dose assay; assay type: cell-based, human; settings: SK-MEL-5, Melanoma
[12] = system: UACC-62; assay: NCI five-dose assay; assay type: cell-based, human; settings: UACC-62, Melanoma
[13] = system: IGROV1; assay: NCI five-dose assay; assay type: cell-based, human; settings: IGROV1, Ovarian cancer
[14] = system: OVCAR-5; assay: NCI five-dose assay; assay type: cell-based, human; settings: OVCAR-5, Ovarian cancer
[15] = system: A498; assay: NCI five-dose assay; assay type: cell-based, human; settings: A498, Renal cancer
[16] = system: RXF393; assay: NCI five-dose assay; assay type: cell-based, human; settings: RXF393, Renal cancer
[17] = system: TK-10; assay: NCI five-dose assay; assay type: cell-based, human; settings: TK-10, Renal cancer
[18] = system: UO-31; assay: NCI five-dose assay; assay type: cell-based, human; settings: UO-31, Renal cancer
[19] = system: MCF7; assay: NCI five-dose assay; assay type: cell-based, human; settings: MCF7, Breast cancer
[20] = system: Melanoma subpanel; assay: NCI five-dose assay, subpanel mean; assay type: cell-based, human
[21] = system: Ovarian cancer subpanel; assay: NCI five-dose assay, subpanel mean; assay type: cell-based, human
[22] = system: Renal cancer subpanel; assay: NCI five-dose assay, subpanel mean; assay type: cell-based, human
[23] = molecular target: T1, tubulin (Sus scrofa, UniProt P02550+P02554); assay: Tubulin polymerization inhibitory assay; assay type: biochemical
T1 construct: purchased Cytoskeleton Inc., Denver, CO, USA
T1 sequence (P02554 whole entry): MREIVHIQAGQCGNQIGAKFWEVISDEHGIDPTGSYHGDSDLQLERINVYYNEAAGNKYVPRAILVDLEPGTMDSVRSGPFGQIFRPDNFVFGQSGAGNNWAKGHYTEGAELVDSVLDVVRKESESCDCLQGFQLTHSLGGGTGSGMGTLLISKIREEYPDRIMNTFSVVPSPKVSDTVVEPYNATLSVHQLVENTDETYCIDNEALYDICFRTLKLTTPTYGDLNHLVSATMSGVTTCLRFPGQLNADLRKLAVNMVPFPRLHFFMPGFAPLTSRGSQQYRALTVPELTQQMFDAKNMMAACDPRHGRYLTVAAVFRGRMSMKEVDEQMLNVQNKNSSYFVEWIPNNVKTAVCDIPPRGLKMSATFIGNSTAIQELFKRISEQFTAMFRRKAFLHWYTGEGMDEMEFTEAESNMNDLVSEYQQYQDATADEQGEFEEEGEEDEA
T1 sequence (P02550 whole entry): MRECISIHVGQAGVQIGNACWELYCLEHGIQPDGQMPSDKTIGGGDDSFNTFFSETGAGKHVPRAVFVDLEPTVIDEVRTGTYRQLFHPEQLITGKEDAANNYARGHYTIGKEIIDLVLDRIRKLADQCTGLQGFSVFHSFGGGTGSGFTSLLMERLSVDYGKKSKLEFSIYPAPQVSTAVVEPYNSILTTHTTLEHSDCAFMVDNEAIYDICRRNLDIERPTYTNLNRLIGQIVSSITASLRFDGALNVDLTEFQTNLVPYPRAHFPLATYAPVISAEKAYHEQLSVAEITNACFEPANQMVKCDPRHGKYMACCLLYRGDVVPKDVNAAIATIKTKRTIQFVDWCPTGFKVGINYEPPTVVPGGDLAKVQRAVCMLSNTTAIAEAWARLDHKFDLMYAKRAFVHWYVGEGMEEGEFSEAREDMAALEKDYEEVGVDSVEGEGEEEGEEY
Description: The substances’ effects on tubulin polymerization were examined using the Tubulin Polymerization Assay Kit (Cytoskeleton Inc., Denver, CO, USA) according to the supplier’s instructions, with details described in Appendix A..
The activity of compounds on tubulin polymerization was investigated using the Tubulin Polymerization Assay Kit (Cytoskeleton Inc., Denver, CO, USA), which works via fluorescent reporter enhancement. […] Docetaxel and vincristine (Apoteket AB, Stockholm, Sweden) served as positive stabilizing and destabilizing controls. Both were used at a 3 µM concentration in PBS.

[24] = Homo sapiens, 48 h, read-out: LC50 (the source's name)
[25] = Homo sapiens, read-out: GI50 Conc. per Cell Lines

Cc1ccc(C(=O)CSc2nnc(-c3c[nH]c4ccccc34)n2-c2ccccc2)cc1 [Compound 6h, 2-((5-(1H-Indol-3-yl)-4-phenyl-4H-1,2,4-triazol-3-yl)thio)-1-(p-tolyl)ethenone]
CC50 [1, 24]: > 100 µM
GI50 [1, 25]: 42 µM
TGI Conc. per Cell Lines [1]: ˃100 µM
CC50 [2, 24]: > 100 µM
GI50 [2, 25]: 13.9 µM
TGI Conc. per Cell Lines [2]: 48.50 µM
TGI Conc. per Cell Lines [3]: 34.70 µM
CC50 [3, 24]: 82.1 µM
GI50 [3, 25]: 14.7 µM
CC50 [4, 24]: > 100 µM
GI50 [4, 25]: 16.3 µM
TGI Conc. per Cell Lines [4]: 55.50 µM
CC50 [5, 24]: > 100 µM
GI50 [5, 25]: 16.3 µM
TGI Conc. per Cell Lines [5]: 43.70 µM
CC50 [6, 24]: > 100 µM
GI50 [6, 25]: 36.1 µM
TGI Conc. per Cell Lines [6]: >100 µM
CC50 [7, 24]: 53.3 µM
GI50 [7, 25]: 12.6 µM
TGI Conc. per Cell Lines [7]: 25.90 µM
CC50 [8, 24]: 68 µM
GI50 [8, 25]: 12.9 µM
TGI Conc. per Cell Lines [8]: 29.60 µM
CC50 [9, 24]: > 100 µM
GI50 [9, 25]: 30.2 µM
TGI Conc. per Cell Lines [9]: >100 µM
CC50 [10, 24]: > 100 µM
GI50 [10, 25]: 19.6 µM
TGI Conc. per Cell Lines [10]: 52.10 µM
CC50 [11, 24]: 92.4 µM
GI50 [11, 25]: 16.5 µM
TGI Conc. per Cell Lines [11]: 39.10 µM
CC50 [12, 24]: 95.1 µM
GI50 [12, 25]: 15.3 µM
TGI Conc. per Cell Lines [12]: 38.10 µM
CC50 ([13]; Homo sapiens, IGROV-1, 48 h, read-out: LC50 (the source's name)): 61 µM
GI50 ([13]; Homo sapiens, IGROV-1, read-out: GI50 Conc. per Cell Lines): 16.1 µM
TGI Conc. per Cell Lines [13]: 31.30 µM
LC50 ([14]; Homo sapiens, 48 h): 71.5 µM
GI50 [14, 25]: 19.4 µM
TGI Conc. per Cell Lines [14]: 37.20 µM
TGI Conc. per Cell Lines [15]: 69.40 µM
LC50 ([15]; Homo sapiens, 48 h): > 100 µM
GI50 [15, 25]: 22.1 µM
LC50 (concentration killing 50% of cells) ([16]; Homo sapiens, RXF 393, 48 h): 61.5 µM
GI50 ([16]; Homo sapiens, RXF 393, read-out: GI50 Conc. per Cell Lines): 13.6 µM
TGI Conc. per Cell Lines [16]: 28.90 µM
CC50 [17, 24]: 85 µM
GI50 [17, 25]: 23.2 µM
TGI Conc. per Cell Lines [17]: 44.40 µM
CC50 [18, 24]: 69.5 µM
GI50 [18, 25]: 14.2 µM
TGI Conc. per Cell Lines [18]: 31.40 µM
LC50 ([19]; Homo sapiens, 48 h): 98.1 µM
GI50 [19, 25]: 15.7 µM
TGI Conc. per Cell Lines [19]: 39.20 µM
GI50 ([20]; Homo sapiens, average sensitivity of all cell lines of the Melanoma subpanel, read-out: GI50 Subpanel MID b): 21.8 µM
GI50 Selectivity Ratio (MID a/MID b) ([20]; Melanoma subpanel): 0.88
GI50 ([21]; Homo sapiens, average sensitivity of all cell lines of the Ovarian cancer subpanel, read-out: GI50 Subpanel MID b): 17.4 µM
GI50 Selectivity Ratio (MID a/MID b) ([21]; Ovarian cancer subpanel): 1.10
GI50 ([22]; Homo sapiens, average sensitivity of all cell lines of the Renal cancer subpanel, read-out: GI50 Subpanel MID b): 17 µM
GI50 Selectivity Ratio (MID a/MID b) ([22]; Renal cancer subpanel): 1.13
tubulin inhibitory activity, times lower than compound 7j [23]: 1.5 times
%inhibition ([23]; conc 0.01 (unit not given; IC50 from this curve in µg/ml)): 5.97%
%inhibition ([23]; conc 0.1 (unit not given; IC50 from this curve in µg/ml)): 16.8%
%inhibition ([23]; conc 1 (unit not given; IC50 from this curve in µg/ml)): 30%
%inhibition ([23]; conc 10 (unit not given; IC50 from this curve in µg/ml)): 58%
%inhibition ([23]; conc 100 (unit not given; IC50 from this curve in µg/ml)): 81.2%
IC50 ([23]; read-out: Tub. IC50±SD (converted)): 9.51 µM
IC50 ([23]; read-out: Tubulin Inhibitory Effect, IC50): 9.5 ± 0.3 µM
